Drawing on US7601746B2 (Shionogi & Co., Ltd., priority 2003, dated 2009), this text covers EC50 for 26 molecules.

SMILES strings stand for the structures.

The first test concerns the target T1, human TPO receptor (hTPOR) (Homo sapiens, UniProt P40238).
T1 construct: expressed in transfected cells; host or cells: BaF-B03 (murine IL-3 dependent cell line)
T1 sequence (P40238 26-635): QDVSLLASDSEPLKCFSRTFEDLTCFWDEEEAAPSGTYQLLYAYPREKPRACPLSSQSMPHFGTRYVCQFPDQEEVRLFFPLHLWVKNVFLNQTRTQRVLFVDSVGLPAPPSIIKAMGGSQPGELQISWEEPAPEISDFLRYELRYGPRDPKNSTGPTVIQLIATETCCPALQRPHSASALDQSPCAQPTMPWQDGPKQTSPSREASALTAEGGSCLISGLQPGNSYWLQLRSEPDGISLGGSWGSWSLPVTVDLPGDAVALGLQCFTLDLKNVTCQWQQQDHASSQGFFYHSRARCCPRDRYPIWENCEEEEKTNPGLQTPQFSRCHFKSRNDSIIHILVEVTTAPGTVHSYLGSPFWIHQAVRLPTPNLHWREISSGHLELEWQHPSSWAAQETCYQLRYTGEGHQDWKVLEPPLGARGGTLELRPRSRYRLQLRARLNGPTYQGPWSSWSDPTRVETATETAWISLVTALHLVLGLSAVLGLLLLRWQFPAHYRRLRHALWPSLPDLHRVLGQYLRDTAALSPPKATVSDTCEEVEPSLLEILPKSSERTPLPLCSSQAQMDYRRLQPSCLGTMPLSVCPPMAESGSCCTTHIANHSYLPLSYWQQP
Put plainly: Thrombopoietic activity: proliferation of TPO dependent BaF/hTPOR cells (WST-1, absorbance at 450 nm). The format is cell-based. Particulars: 20 h + 4 h WST-1, ED50 = half concentration of the concentration showing the maximum thrombopoietic activity, Table 1. Put shortly: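 Proliferation read-out: WST-1 absorbance at 450 nm after 20 h compound exposure plus 4 h reagent, using IL-3-deprived BaF/hTPOR cells (5×10^4 per well) dependent on human TPO receptor signalling. ED50 defined as half the concentration producing maximal activity.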
As a reminder, the EC50 is the concentration giving half of the maximal effect. In the case of `CCCCCCCOCc1cccc(-c2csc(NC(=O)c3cc(F)c(/C=C(\C)C(=O)O)c(F)c3)n2)c1OC` [Compound B1990, (E)-3-{2,6-difluoro-4-[4-(3-heptyloxymethyl-2-methyloxyphenyl)thiazol-2-ylcarbamoyl]phenyl}-2-methylacrylic acid], the EC50 was 12.1 nM.

`CCCCCCCOCc1cccc(-c2csc(NC(=O)c3cc(Cl)c(/C=C(\C)C(=O)O)c(Cl)c3)n2)c1OC` [Compound B1991, (E)-3-{2,6-dichloro-4-[4-(3-heptyloxymethyl-2-methyloxyphenyl)thiazol-2-ylcarbamoyl]phenyl}-2-methylacrylic acid]: the EC50 was 13.2 nM.

In the case of `CCCCCCOCc1cccc(-c2csc(NC(=O)c3cc(F)c(/C=C(\C)C(=O)O)c(F)c3)n2)c1OC` [Compound B1992, (E)-3-{2,6-difluoro-4-[4-(3-hexyloxymethyl-2-methyloxyphenyl)thiazol-2-ylcarbamoyl]phenyl}-2-methylacrylic acid], the concentration for a half-maximal effect (EC50) worked out at 13.1 nM.

Take `CCCCCCOCc1cccc(-c2csc(NC(=O)c3cc(Cl)c(/C=C(\C)C(=O)O)c(Cl)c3)n2)c1OC` [Compound B1993, (E)-3-{2,6-dichloro-4-[4-(3-hexyloxymethyl-2-methyloxyphenyl)thiazol-2-ylcarbamoyl]phenyl}-2-methylacrylic acid]: the concentration for a half-maximal effect (EC50) came to 13.9 nM.

Take `CCCCCCOCc1cccc(-c2csc(NC(=O)c3cc(Cl)c(/C=C(\OC)C(=O)O)c(Cl)c3)n2)c1OC` [Compound B1994, (Z)-3-{2,6-dichloro-4-[4-(3-hexyloxymethyl-2-methyloxyphenyl)thiazol-2-ylcarbamoyl]phenyl}-2-methyloxyacrylic acid]: the 50% effective concentration (EC50) was 14.2 nM.

Take `CCCCOCc1cccc(-c2csc(NC(=O)c3cc(Cl)c(/C=C(\C)C(=O)O)c(Cl)c3)n2)c1OC` [Compound B1995, (E)-3-{4-[4-(3-butyloxymethyl-2-methyloxyphenyl)thiazol-2-ylcarbamoyl]-2,6-dichlorophenyl}-2-methylacrylic acid]: the concentration giving a half-maximal response (EC50) is 10.9 nM.

`CCCCOCc1cccc(-c2csc(NC(=O)c3cc(F)c(/C=C(\C)C(=O)O)c(F)c3)n2)c1OC` [Compound B1997, (E)-3-{4-[4-(3-butyloxymethyl-2-methyloxyphenyl)thiazol-2-ylcarbamoyl]-2,6-difluorophenyl}-2-methylacrylic acid]: the EC50 turned out to be 15.5 nM.

For `CCCCCCCOc1cccc(-c2csc(NC(=O)c3cc(F)c(/C=C(\C)C(=O)O)c(F)c3)n2)c1OC` [Compound B1998, (E)-3-{2,6-difluoro-4-[4-(3-heptyloxy-2-methyloxyphenyl)thiazol-2-ylcarbamoyl]phenyl}-2-methylacrylic acid], the concentration giving a half-maximal response (EC50) stood at 8.35 nM.

For `CCCCCCCOc1cccc(-c2csc(NC(=O)c3cc(Cl)c(/C=C(\C)C(=O)O)c(Cl)c3)n2)c1OC` [Compound B1999, (E)-3-{2,6-dichloro-4-[4-(3-heptyloxy-2-methyloxyphenyl)thiazol-2-ylcarbamoyl]phenyl}-2-methylacrylic acid], the EC50 came to 13.2 nM.

Take `CCCCCCCOc1cccc(-c2csc(NC(=O)c3cc(Cl)c(/C=C(\OC)C(=O)O)c(Cl)c3)n2)c1OC` [Compound B2001, (Z)-3-{2,6-dichloro-4-[4-(3-heptyloxy-2-methyloxyphenyl)thiazol-2-ylcarbamoyl]phenyl}-2-methyloxyacrylic acid]: the concentration giving a half-maximal response (EC50) was 19.4 nM.

As to `CCCCCCCCOc1cccc(-c2csc(NC(=O)c3cc(F)c(/C=C(\C)C(=O)O)c(F)c3)n2)c1OC` [Compound B2004, (E)-3-{2,6-difluoro-4-[4-(2-methyloxy-3-octyloxyphenyl)thiazol-2-ylcarbamoyl]phenyl}-2-methylacrylic acid], the EC50 turned out to be 13.9 nM.

In the case of `CCCCCCCCOc1cccc(-c2csc(NC(=O)c3cc(Cl)c(/C=C(\C)C(=O)O)c(Cl)c3)n2)c1OC` [Compound B2005, (E)-3-{2,6-dichloro-4-[4-(2-methyloxy-3-octyloxyphenyl)thiazol-2-ylcarbamoyl]phenyl}-2-methylacrylic acid], the EC50 came out at 10.3 nM.

In the case of `COc1c(COCC(C)(C)C)cccc1-c1csc(NC(=O)c2cc(Cl)c(/C=C(\C)C(=O)O)c(Cl)c2)n1` [Compound B2021, (E)-3-(2,6-dichloro-4-{4-[3-(2,2-dimethylpropyloxymethyl)-2-methyloxyphenyl]thiazol-2-ylcarbamoyl}phenyl)-2-methylacrylic acid], the EC50 came out at 6.09 nM.

Turning to `CO/C(=C\c1c(Cl)cc(C(=O)Nc2nc(-c3cccc(COCC(C)(C)C)c3OC)cs2)cc1Cl)C(=O)O` [Compound B2022, (Z)-3-(2,6-dichloro-4-{4-[3-(2,2-dimethylpropyloxymethyl)-2-methyloxyphenyl]thiazol-2-ylcarbamoyl}phenyl)-2-methyloxyacrylic acid], the half-maximal effective concentration (EC50) was 15.6 nM.

In the case of `CCC(CC)COCc1cccc(-c2csc(NC(=O)c3cc(F)c(/C=C(\C)C(=O)O)c(F)c3)n2)c1OC` [Compound B2023, (E)-3-(4-{4-[3-(2-ethylbutyloxymethyl)-2-methyloxyphenyl]thiazol-2-ylcarbamoyl}-2,6-difluorophenyl)-2-methyl acrylic acid], the EC50 came to 6.45 nM.

Regarding `CCC(CC)COCc1cccc(-c2csc(NC(=O)c3cc(F)c(/C=C(\OC)C(=O)O)c(F)c3)n2)c1OC` [Compound B2024, (Z)-3-(4-{4-[3-(2-ethylbutyloxymethyl)-2-methyloxyphenyl]thiazol-2-ylcarbamoyl}-2,6-difluorophenyl)-2-methyloxyacrylic acid], the 50% effective concentration (EC50) is 9.96 nM.

As to `CCC(CC)COCc1cccc(-c2csc(NC(=O)c3cc(Cl)c(/C=C(\C)C(=O)O)c(Cl)c3)n2)c1OC` [Compound B2025, (E)-3-(2,6-dichloro-4-{4-[3-(2-ethylbutyloxymethyl)-2-methyloxyphenyl]thiazol-2-ylcarbamoyl}phenyl)-2-methylacrylic acid], the half-maximal effective concentration (EC50) worked out at 3.2 nM.

Take `CCC(CC)COCc1cccc(-c2csc(NC(=O)c3cc(Cl)c(/C=C(\OC)C(=O)O)c(Cl)c3)n2)c1OC` [Compound B2026, (Z)-3-(2,6-dichloro-4-{4-[3-(2-ethylbutyloxymethyl)-2-methyloxyphenyl]thiazol-2-ylcarbamoyl}phenyl)-2-methyloxyacrylic acid]: the EC50 was 12.6 nM.

Regarding `COc1c(COCCC(C)C)cccc1-c1csc(NC(=O)c2cc(F)c(/C=C(\C)C(=O)O)c(F)c2)n1` [Compound B2027, (E)-3-(2,6-difluoro-4-{4-[2-methyloxy-3-(3-methylbutyloxymethyl)phenyl]thiazol-2-ylcarbamoyl}phenyl)-2-methylacrylic acid], the EC50 turned out to be 12.6 nM.

For `COc1c(COCCC(C)C)cccc1-c1csc(NC(=O)c2cc(Cl)c(/C=C(\C)C(=O)O)c(Cl)c2)n1` [Compound B2028, (E)-3-(2,6-dichloro-4-{4-[2-methyloxy-3-(3-methylbutyloxymethyl)phenyl]thiazol-2-ylcarbamoyl}phenyl)-2-methylacrylic acid], the EC50 turned out to be 11.4 nM.

Regarding `CCCCCCCCCC(OC)c1cccc(-c2csc(NC(=O)c3cc(F)c(/C=C(\C)C(=O)O)c(F)c3)n2)c1OCC` (centres unmarked) [Compound B2099, (E)-3-(4-{4-[2-ethyloxy-3-(1-methyloxydecyl)phenyl]thiazol-2-ylcarbamoyl}-2,6-difluorophenyl)-2-methylacrylic acid], the EC50 came to 2.91 nM.

The same test, now with this note: 20 h + 4 h WST-1, ED50 = half concentration of the concentration showing the maximum thrombopoietic activity, Table 2.
For the molecule `COc1c(CCOCCCCCl)cccc1-c1csc(NC(=O)c2cc(Cl)c(/C=C(\C)C(=O)O)c(Cl)c2)n1` [Compound B1963, (E)-3-[2,6-dichloro-4-(4-{3-[2-(4-chlorobutyloxy)ethyl]-2-methyloxyphenyl}thiazol-2-ylcarbamoyl)phenyl]-2-methylacrylic acid], the half-maximal effective concentration (EC50) came to 28.6 nM.

Regarding `CCCCCCCOc1cccc(-c2csc(NC(=O)c3cc(F)c(/C=C(\OC)C(=O)O)c(F)c3)n2)c1OC` [Compound B2000, (Z)-3-{2,6-difluoro-4-[4-(3-heptyloxy-2-methyloxyphenyl)thiazol-2-ylcarbamoyl]phenyl}-2-methyloxyacrylic acid], the EC50 stood at 20.5 nM.

For the molecule `COc1c(CCOCCCCF)cccc1-c1csc(NC(=O)c2cc(Cl)c(/C=C(\C)C(=O)O)c(Cl)c2)n1` [Compound B2003, (E)-3-[2,6-dichloro-4-(4-{3-[2-(4-fluorobutyloxy)ethyl]-2-methyloxyphenyl}thiazol-2-ylcarbamoyl)phenyl]-2-methylacrylic acid], the EC50 is 22.7 nM.

As for `CO/C(=C\c1c(F)cc(C(=O)Nc2nc(-c3cccc(C(CCOC(C)C)OC)c3F)cs2)cc1F)C(=O)O` (centres unmarked) [Compound B2012, (Z)-3-(2,6-difluoro-4-{4-[2-fluoro-3-(3-isopropyloxy-1-methyloxypropyl)phenyl]thiazol-2-ylcarbamoyl}phenyl)-2-methyloxyacrylic acid], the concentration giving a half-maximal response (EC50) was 24.2 nM.

Take `COc1cccc(-c2csc(NC(=O)c3cc(Cl)c(/C=C(\C)C(=O)O)c(Cl)c3)n2)c1F` [Compound B2018, (E)-3-{2,6-dichloro-4-[4-(2-fluoro-3-methyloxyphenyl)thiazol-2-ylcarbamoyl]phenyl}-2-methylacrylic acid]: the EC50 was determined as 23.5 nM.
